ChEMBL document CHEMBL1140643, “Synthesis of 4-phenoxybenzamide adenine dinucleotide as NAD analogue with inhibitory activity against enoyl-ACP reductase (InhA) of Mycobacterium tuberculosis” (Bioorg Med Chem Lett, 2007)

Columns and labels:
[1] = target: T1, Enoyl-[acyl-carrier-protein] reductase [NADH] (Mycobacterium tuberculosis) (UniProt P9WGR1); experiment: Inhibition of Mycobacterium tuberculosis InhA at 700 uM
T1 sequence (whole entry): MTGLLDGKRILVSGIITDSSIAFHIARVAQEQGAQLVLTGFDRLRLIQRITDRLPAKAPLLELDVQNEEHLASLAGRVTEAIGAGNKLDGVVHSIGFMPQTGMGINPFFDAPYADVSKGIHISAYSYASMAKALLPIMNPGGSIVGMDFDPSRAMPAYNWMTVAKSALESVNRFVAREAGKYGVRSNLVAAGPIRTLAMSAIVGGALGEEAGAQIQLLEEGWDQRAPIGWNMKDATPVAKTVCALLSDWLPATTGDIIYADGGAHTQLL

[2] = target: T1, Enoyl-[acyl-carrier-protein] reductase [NADH] (Mycobacterium tuberculosis); experiment: Inhibition of Mycobacterium tuberculosis InhA at 100 uM
[3] = target: T2, Enoyl-[acyl-carrier-protein] reductase [NADH] (Mycobacterium tuberculosis, UniProt P9WGR1); experiment: Inhibition of Mycobacterium tuberculosis InhA
T2 sequence (P9WGR1 whole entry): T1 sequence (whole entry)

For NC(=O)c1cc([C@@H]2O[C@H](CO)[C@@H](O)[C@H]2O)ccc1Oc1ccccc1, the inhibition [1] was 25%.

Compound NC(=O)c1cc([C@@H]2O[C@H](COP(=O)(O)O)[C@@H](O)[C@H]2O)ccc1Oc1ccccc1 has an inhibition [2] of 12%.

NC(=O)c1cc([C@@H]2O[C@H](COP(=O)(O)OP(=O)(O)OC[C@H]3O[C@@H](n4cnc5c(N)ncnc54)[C@H](O)[C@@H]3O)[C@@H](O)[C@H]2O)ccc1Oc1ccccc1 showed an IC50 [3] of 27 µM.
